Results published in ChEMBL document CHEMBL1141712, “Kinase array design, back to front: biaryl amides” (Bioorg Med Chem Lett, 2008).

What was measured:
[1] = target: Mitogen-activated protein kinase 14 (Homo sapiens, UniProt Q16539); assay: Displacement of fluorescent ATP competitive ligand from p38alpha
[2] = target: Dual specificity mitogen-activated protein kinase kinase 1 (Homo sapiens, UniProt Q02750); assay: Inhibition of MEK1 by cRaf/mek/Erk cascade assay
[3] = target: Cyclin-dependent kinase 2 (Homo sapiens, UniProt P24941); assay: Inhibition of CDK2
[4] = target: Macrophage colony-stimulating factor 1 receptor (Homo sapiens, UniProt P07333); assay: Inhibition of cFMS
[5] = target: Mitogen-activated protein kinase 10 (Homo sapiens, UniProt P53779); assay: Inhibition of JNK3
[6] = target: Serine/threonine-protein kinase PLK1 (Homo sapiens, UniProt P53350); assay: Inhibition of PLK1
[7] = target: T1, Serine/threonine-protein kinase Sgk1 (Homo sapiens, UniProt O00141); assay: Inhibition of SGK1
T1 sequence (O00141 whole entry): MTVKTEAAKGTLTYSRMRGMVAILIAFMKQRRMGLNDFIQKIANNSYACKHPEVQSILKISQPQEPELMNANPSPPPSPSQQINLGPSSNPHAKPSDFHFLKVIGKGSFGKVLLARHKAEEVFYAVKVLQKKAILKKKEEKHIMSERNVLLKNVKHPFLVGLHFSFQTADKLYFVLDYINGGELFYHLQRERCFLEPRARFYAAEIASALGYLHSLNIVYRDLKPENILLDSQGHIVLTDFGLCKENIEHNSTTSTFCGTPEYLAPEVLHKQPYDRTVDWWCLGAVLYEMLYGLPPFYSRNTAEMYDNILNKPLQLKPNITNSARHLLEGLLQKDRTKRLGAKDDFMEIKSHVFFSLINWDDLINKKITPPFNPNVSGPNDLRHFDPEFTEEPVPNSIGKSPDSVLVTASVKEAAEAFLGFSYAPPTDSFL

[8] = target: Vascular endothelial growth factor receptor 2 (Homo sapiens, UniProt P35968); assay: Inhibition of VEGFR2
[9] = test system: Blood; assay: Inhibition of LPS-stimulated TNFalpha release in human whole blood; format: functional, tissue-based
[10] = test system: PBMC; assay: Inhibition of LPS-stimulated TNFalpha release in human PBMCs; format: functional, cell-based
[11] = target: Tyrosine-protein kinase Lck (Homo sapiens, UniProt P06239)
[12] = target: Receptor tyrosine-protein kinase erbB-4 (Homo sapiens, UniProt Q15303); assay: Inhibition of ErbB4
[13] = target: Epidermal growth factor receptor (Homo sapiens, UniProt P00533)

Vascular endothelial growth factor receptor 2, sequence (P35968 whole entry): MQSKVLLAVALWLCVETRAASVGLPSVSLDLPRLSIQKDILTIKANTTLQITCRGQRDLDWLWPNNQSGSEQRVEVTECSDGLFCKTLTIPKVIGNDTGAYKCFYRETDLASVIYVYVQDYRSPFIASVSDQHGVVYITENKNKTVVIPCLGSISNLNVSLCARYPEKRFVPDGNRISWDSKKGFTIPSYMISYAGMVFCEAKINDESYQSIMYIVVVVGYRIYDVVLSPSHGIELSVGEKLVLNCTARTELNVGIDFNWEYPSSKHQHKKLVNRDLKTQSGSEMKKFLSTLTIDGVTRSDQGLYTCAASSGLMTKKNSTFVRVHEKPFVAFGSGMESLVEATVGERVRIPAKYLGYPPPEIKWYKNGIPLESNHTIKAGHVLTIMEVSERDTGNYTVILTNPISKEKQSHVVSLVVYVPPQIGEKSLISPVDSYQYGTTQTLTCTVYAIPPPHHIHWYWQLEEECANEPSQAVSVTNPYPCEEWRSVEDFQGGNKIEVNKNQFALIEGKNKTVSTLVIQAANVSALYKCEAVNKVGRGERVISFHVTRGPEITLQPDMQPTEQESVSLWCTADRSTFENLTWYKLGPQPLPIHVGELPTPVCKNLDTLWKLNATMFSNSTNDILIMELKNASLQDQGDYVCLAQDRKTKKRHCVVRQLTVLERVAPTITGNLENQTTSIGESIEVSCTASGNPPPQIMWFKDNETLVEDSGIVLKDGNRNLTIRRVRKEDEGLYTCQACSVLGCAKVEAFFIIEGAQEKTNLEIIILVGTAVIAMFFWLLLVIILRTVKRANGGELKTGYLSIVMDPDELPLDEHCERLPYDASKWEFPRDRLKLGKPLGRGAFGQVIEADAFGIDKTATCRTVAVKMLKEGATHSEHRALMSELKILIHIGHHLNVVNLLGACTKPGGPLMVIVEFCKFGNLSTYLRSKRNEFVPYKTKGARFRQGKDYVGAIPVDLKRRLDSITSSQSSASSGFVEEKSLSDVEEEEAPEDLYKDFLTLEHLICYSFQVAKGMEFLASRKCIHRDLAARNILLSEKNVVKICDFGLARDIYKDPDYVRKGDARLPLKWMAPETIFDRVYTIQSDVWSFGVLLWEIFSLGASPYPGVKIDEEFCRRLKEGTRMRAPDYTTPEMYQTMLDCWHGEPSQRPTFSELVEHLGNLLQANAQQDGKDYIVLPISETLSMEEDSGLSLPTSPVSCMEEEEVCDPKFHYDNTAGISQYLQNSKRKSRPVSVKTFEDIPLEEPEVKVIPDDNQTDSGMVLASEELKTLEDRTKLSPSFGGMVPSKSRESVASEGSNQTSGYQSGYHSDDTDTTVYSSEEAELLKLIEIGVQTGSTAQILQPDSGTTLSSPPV
Tyrosine-protein kinase Lck, sequence (P06239 whole entry): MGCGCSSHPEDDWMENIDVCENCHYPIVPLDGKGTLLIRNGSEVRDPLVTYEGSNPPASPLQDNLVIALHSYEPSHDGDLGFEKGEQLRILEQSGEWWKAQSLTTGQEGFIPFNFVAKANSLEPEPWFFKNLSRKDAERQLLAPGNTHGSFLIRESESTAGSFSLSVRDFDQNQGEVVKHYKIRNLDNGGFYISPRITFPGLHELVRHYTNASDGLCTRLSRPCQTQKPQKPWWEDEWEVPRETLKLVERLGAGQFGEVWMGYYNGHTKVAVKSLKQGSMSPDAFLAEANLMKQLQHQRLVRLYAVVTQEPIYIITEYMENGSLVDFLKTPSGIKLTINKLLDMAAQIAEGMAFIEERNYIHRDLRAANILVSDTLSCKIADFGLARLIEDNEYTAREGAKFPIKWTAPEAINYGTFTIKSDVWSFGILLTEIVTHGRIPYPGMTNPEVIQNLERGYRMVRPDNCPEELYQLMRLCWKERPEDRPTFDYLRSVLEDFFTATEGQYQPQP
Dual specificity mitogen-activated protein kinase kinase 1, sequence (Q02750 whole entry): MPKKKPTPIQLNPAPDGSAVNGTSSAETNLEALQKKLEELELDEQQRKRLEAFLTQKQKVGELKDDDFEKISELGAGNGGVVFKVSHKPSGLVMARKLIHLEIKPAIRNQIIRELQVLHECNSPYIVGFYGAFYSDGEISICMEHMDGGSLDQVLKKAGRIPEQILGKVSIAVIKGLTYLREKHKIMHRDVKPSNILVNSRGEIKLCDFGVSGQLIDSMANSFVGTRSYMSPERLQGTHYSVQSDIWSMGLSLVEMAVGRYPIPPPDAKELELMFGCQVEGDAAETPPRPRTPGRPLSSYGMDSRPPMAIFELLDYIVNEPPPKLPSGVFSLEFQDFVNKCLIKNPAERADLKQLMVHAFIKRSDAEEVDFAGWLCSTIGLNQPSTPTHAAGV
Receptor tyrosine-protein kinase erbB-4, sequence (Q15303 whole entry): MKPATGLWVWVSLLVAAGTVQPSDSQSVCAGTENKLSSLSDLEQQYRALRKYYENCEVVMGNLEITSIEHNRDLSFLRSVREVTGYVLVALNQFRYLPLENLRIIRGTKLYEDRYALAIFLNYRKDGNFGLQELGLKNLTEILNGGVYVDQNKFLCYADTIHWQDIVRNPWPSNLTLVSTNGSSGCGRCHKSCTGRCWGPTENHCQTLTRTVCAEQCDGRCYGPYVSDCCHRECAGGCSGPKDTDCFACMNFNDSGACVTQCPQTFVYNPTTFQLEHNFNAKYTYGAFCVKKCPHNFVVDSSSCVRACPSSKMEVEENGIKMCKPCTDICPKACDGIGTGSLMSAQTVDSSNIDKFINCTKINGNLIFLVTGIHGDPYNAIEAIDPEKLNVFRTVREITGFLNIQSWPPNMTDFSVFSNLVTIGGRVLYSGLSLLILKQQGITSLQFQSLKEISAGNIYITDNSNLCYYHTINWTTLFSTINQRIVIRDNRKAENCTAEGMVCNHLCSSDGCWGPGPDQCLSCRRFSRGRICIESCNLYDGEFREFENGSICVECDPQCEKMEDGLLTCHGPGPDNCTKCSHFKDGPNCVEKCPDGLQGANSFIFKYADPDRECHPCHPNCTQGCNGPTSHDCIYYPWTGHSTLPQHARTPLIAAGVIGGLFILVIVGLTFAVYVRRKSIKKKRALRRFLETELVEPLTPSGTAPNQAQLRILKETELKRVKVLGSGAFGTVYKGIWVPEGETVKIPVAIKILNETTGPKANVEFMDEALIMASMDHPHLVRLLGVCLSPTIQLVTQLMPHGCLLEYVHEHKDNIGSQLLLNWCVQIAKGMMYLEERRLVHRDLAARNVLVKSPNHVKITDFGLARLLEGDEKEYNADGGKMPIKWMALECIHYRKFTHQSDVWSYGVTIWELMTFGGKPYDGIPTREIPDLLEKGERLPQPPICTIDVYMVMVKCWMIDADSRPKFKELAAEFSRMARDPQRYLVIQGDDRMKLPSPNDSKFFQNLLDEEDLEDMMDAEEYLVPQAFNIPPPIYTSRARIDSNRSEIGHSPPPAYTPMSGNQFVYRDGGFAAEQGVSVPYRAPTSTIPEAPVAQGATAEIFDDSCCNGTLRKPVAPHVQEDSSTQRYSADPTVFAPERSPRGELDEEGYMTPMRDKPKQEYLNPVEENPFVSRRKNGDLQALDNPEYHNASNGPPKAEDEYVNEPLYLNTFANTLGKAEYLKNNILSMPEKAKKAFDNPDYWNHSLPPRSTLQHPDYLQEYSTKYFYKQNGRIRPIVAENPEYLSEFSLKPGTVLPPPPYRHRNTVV
Mitogen-activated protein kinase 10, sequence (P53779 whole entry): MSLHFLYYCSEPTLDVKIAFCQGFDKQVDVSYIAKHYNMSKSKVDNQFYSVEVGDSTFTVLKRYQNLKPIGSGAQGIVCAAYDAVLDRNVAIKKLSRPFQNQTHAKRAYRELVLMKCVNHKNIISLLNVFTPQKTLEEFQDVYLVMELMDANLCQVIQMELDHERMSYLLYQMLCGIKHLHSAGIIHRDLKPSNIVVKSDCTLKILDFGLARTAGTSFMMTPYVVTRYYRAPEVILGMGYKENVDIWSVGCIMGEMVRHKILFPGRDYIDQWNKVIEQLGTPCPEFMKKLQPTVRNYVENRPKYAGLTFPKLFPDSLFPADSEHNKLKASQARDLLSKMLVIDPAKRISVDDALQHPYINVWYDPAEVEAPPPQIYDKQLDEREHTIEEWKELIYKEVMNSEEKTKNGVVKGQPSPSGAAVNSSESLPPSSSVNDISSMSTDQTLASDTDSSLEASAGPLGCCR
Macrophage colony-stimulating factor 1 receptor, sequence (P07333 whole entry): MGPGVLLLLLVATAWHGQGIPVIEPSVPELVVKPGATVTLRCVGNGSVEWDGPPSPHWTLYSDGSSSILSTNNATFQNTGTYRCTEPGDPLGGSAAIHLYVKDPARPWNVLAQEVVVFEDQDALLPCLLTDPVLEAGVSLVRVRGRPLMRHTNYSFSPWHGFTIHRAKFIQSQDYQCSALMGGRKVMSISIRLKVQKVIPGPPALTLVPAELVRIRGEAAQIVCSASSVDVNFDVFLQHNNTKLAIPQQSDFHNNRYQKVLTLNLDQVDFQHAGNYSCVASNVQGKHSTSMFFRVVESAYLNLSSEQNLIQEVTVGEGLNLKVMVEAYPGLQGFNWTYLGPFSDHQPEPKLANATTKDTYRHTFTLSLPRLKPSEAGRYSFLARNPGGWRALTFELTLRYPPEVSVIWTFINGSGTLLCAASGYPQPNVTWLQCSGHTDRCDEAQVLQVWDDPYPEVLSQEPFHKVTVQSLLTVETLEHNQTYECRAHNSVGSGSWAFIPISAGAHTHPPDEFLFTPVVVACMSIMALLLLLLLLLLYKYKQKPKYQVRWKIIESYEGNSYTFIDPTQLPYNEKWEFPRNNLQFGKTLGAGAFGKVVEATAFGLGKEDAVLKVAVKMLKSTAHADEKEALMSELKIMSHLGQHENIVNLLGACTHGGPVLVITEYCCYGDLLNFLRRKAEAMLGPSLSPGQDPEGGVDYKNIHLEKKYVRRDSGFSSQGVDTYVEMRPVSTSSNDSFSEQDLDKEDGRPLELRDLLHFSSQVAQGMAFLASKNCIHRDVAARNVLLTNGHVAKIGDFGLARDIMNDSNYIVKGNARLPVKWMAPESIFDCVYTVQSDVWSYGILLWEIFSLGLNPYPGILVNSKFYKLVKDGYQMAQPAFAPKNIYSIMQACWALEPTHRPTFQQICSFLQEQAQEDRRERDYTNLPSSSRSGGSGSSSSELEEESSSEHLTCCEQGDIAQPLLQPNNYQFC

For `CC(=O)Nc1cc(-c2ccc(-c3cc(NC(=O)c4ccnc(N5CCCC5)c4)ccc3C)cc2)[nH]n1`, the Ki [1] was 14 nM.

In the case of `Cc1ccc(C(=O)Nc2cccc(N3CCOCC3)c2)cc1-c1ccc2c(C3CCNCC3)noc2c1`, the IC50 [2] is reported as 40 nM, the IC50 [3] is reported as greater than 20000 nM and the IC50 [4] is reported as greater than 20000 nM. The IC50 [5] was greater than 16000 nM, the IC50 [6] was greater than 25000 nM and the IC50 [7] was greater than 33000 nM. It also gave an IC50 [8] greater than 20000 nM.

In the case of `Cc1ccc(NC(=O)c2ccnc(N3CCCC3)c2)cc1-c1ccc2c(C3CCNCC3)noc2c1`, the IC50 [9] is reported as 5000 nM, the Ki [1] is reported as 0.8 nM and the IC50 [2] is reported as 30 nM. For the same compound, the IC50 [3] was greater than 20000 nM, the IC50 [4] was 7000 nM and the IC50 [5] was greater than 16000 nM. The IC50 [6] was greater than 25000 nM, the IC50 [7] was greater than 33000 nM and the IC50 [8] was greater than 20000 nM. It also gave an IC50 [10] of 60 nM and an IC50 [11] of 6000 nM.

In the case of `Cc1nnc(-c2ccc(-c3cc(NC(=O)c4ccnc(N5CCCC5)c4)ccc3C)c(C)c2)o1`, the IC50 [9] is reported as 700 nM, the Ki [1] is reported as 1.7 nM and the IC50 [2] is reported as 200 nM. It also gave an IC50 [3] greater than 20000 nM, an IC50 [4] greater than 20000 nM and an IC50 [5] greater than 16000 nM. The IC50 [6] was greater than 25000 nM, the IC50 [7] was greater than 33000 nM and the IC50 [8] was greater than 20000 nM. It also gave an IC50 [10] of 100 nM and an IC50 [11] of 10000 nM.

`Cc1ccc(C(=O)Nc2cccc(N3CCOCC3)c2)cc1-c1ccc2onc(C)c2c1` was tested, and the Ki [1] was 380 nM.

For `Cc1ccc(NC(=O)c2ccnc(N3CCCC3)c2)cc1-c1ccc2[nH]c(=O)ccc2c1`, the Ki [1] was 49 nM.

With `Cc1ccc(C(=O)Nc2cccc(N3CCOCC3)c2)cc1-c1ccc2[nH]ncc2c1` the Ki [1] was 110 nM.

Work on `Cc1ccc(NC(=O)c2ccc(CN3CCN(C)CC3)cc2)cc1-c1ccc(-c2csc(N)n2)cc1` yielded a Ki [1] greater than 850 nM, an IC50 [3] greater than 20000 nM and an IC50 [4] of 90 nM. It also gave an IC50 [12] greater than 25000 nM, an IC50 [5] greater than 16000 nM and an IC50 [6] greater than 25000 nM. It also gave an IC50 [7] greater than 33000 nM, an IC50 [8] greater than 20000 nM and an IC50 [13] greater than 25000 nM. It also gave an IC50 [11] of 2000 nM.

Compound `Cc1nc(-c2ccc(-c3cc(C(=O)NC4CC4)ccc3C)cc2)no1` has a Ki [1] of 98 nM.

Work on `Cc1ccc(C(=O)Nc2cccc(N3CCOCC3)c2)cc1-c1ccc2nc(N)[nH]c(=O)c2c1` yielded a Ki [1] of 4.7 nM.

`Cc1ccc(C(=O)NC2CC2)cc1-c1ccc2nc(N)[nH]c(=O)c2c1` gave a Ki [1] of 49 nM.

`Cc1nc(-c2ccc(-c3cc(C(=O)Nc4cccc(N5CCOCC5)c4)ccc3C)cc2)no1` was tested, and the Ki [1] was 17 nM.

In the case of `Cc1ccc(C(=O)NC2CC2)cc1-c1ccc2cccnc2c1`, the Ki [1] is reported as 490 nM.

Compound `Cc1ccc(NC(=O)c2ccc(CN3CCN(C)CC3)cc2)cc1-c1ccc2cccnc2c1` has a Ki [1] greater than 2500 nM.

With `Cc1ccc(C(=O)NC2CC2)cc1-c1ccc2c(=O)cc(-c3cccs3)oc2c1` the Ki [1] was 6.7 nM.

Compound `Cc1ccc(C(=O)Nc2cccc(N3CCOCC3)c2)cc1-c1ccc2[nH]c(=O)ccc2c1` has a Ki [1] of 290 nM.

Compound `Cc1nc(-c2ccc(-c3cc(NC(=O)c4ccc(CN5CCN(C)CC5)cc4)ccc3C)cc2)no1` has a Ki [1] greater than 850 nM.

Work on `CCCCn1c(=O)[nH]c2cc(-c3cc(NC(=O)c4ccnc(N5CCCC5)c4)ccc3C)ccc2c1=O` yielded a Ki [1] of 11 nM.

For `Cc1nnc(-c2ccc(-c3cc(NC(=O)c4ccc(CN5CCN(C)CC5)cc4)ccc3C)c(C)c2)o1`, the Ki [1] was 1400 nM, the IC50 [3] was greater than 20000 nM and the IC50 [4] was 100 nM. The IC50 [12] was greater than 25000 nM, the IC50 [5] was greater than 16000 nM and the IC50 [6] was greater than 25000 nM. The IC50 [7] was greater than 33000 nM, the IC50 [8] was greater than 20000 nM and the IC50 [13] was greater than 25000 nM. For the same compound, the IC50 [11] was 3000 nM.

Work on `Cc1ccc(NC(=O)c2ccnc(N3CCCC3)c2)cc1-c1ccc2c(N)noc2c1` yielded a Ki [1] of 12 nM.

`Cc1ccc(NC(=O)c2ccc(CN3CCN(C)CC3)cc2)cc1-c1ccc2c(N)noc2c1` was tested, and the Ki [1] was greater than 850 nM, the IC50 [3] was greater than 20000 nM and the IC50 [4] was 90 nM. The IC50 [12] was greater than 25000 nM, the IC50 [5] was greater than 16000 nM and the IC50 [6] was greater than 25000 nM. It also gave an IC50 [7] greater than 33000 nM, an IC50 [8] greater than 20000 nM and an IC50 [13] greater than 25000 nM. For the same compound, the IC50 [11] was 1000 nM.

`Cc1ccc(C(=O)Nc2cccc(N3CCOCC3)c2)cc1-c1ccc2ccncc2c1` was tested, and the Ki [1] was 4.5 nM.

With `Cc1ccc(C(=O)NC2CC2)cc1-c1ccc2c(C3CCNCC3)noc2c1` the IC50 [9] was 3000 nM, the Ki [1] was 4 nM and the IC50 [2] was greater than 50000 nM. It also gave an IC50 [3] greater than 20000 nM, an IC50 [4] greater than 20000 nM and an IC50 [12] greater than 25000 nM. For the same compound, the IC50 [6] was greater than 25000 nM, the IC50 [7] was greater than 33000 nM and the IC50 [8] was greater than 20000 nM. It also gave an IC50 [10] of 200 nM and an IC50 [13] greater than 25000 nM.

`CCCCn1c(=O)[nH]c2cc(-c3cc(C(=O)NC4CC4)ccc3C)ccc2c1=O` was tested, and the Ki [1] was 18 nM.
